Tests used:
EG7 cells [1] = assay: EG7 subcutaneous tumor model in C57BL/6 mice, tumor volume; assay type: in vivo, mouse
Experimental: EG7 cells were implanted subcutaneously into C57BL/6 mice. Compound 9 (50 mg/kg) or vehicle was orally administered BID starting day one post implant (N=10 per group). Tumors were excised on day 14 and analyzed by flow cytometry. Compound 9 increased the % CD8+ cells of CD45+ cells as shown in FIG. 1A (* indicates p<0.05). EG7 cells were implanted subcutaneously into C57BL/6 mice. Anti-CD8 antibody was dosed i.p. on days −1, 0, 5, and 10. Compound 9 (50 mg/kg) or vehicle was orally dosed BID starting on day 1.
Compounds of the invention show potent anti-tumor effects, evidenced in reducing tumor volume in a mouse model. In one model, EG7 cells were implanted subcutaneously into C57BL/6 mice. Compound 9 or vehicle was orally administered BID starting day one post implant (N=10 per group). […] In another model, EG7 cells were implanted subcutaneously into C57BL/6 mice. Compound 9 was orally administered BID (100 mg/kg) starting day one post implant (N=10 per group). Vehicle was orally administered BID starting day one post implant (N=20) until day five post implant, at which time, mice were randomized by tumor volume into two groups. Compound 9 (100 mg/kg) or vehicle was orally administered BID to N=10 per group starting day six post implant. […] FIGS. 13B-D show individual replications of this measurement for each dosing. FIG. 13B is vehicle. FIG. 13C is dosing of Compound 9 started on day 1. FIG. 13D is Compound 9 started on day 6. In another model, CT26 cells were implanted subcutaneously into Balb/c mice. 100 mg/kg Compound 9 or vehicle was orally administered BID starting day one post implant (N=10 per group).
EG7 cells were implanted subcutaneously into C57BL/6 mice for each experiment. Anti-PD-L1 antibody (5 mg/kg) was dosed i.p. on Study Days 3, 5, 7, 9, 11, 13. Compound 9 (100 mg/kg) or vehicle was orally administered BID starting one day post implant. […] FIGS. 7B-7E show the individual replications of this measurement for each dosing. FIG. 7B is vehicle, FIG. 7C is anti-PD-L1 antibody, FIG. 7D is Compound 9, and FIG. 7E is Compound 9+ Anti-PD-L1.
Oxaliplatin was dosed i.p. 6 mg/kg on Study Days 7 and 14. Compound 9 (100 mg/kg) or vehicle was orally administered BID starting one day post implant. […] FIGS. 8B-8E show the individual replications of this measurement for each dosing. FIG. 8B is vehicle, FIG. 8C is oxaliplatin, FIG. 8D is Compound 9, and FIG. 8E is Compound 9+oxaliplatin.
Doxorubicin was dosed i.v. 2.5 mg/kg on Study Days 7 and 14. Compound 9 (50 mg/kg) or vehicle was orally administered BID starting one day post implant. […] FIGS. 9B-9E show the individual replications of this measurement for each dosing. FIG. 9B is vehicle, FIG. 9C is doxorubicin, FIG. 9D is Compound 9, and FIG. 9E is Compound 9+doxorubicin.
Docetaxel was dosed i.p. 5 mg/kg on Study Days 5, 12, and 19. Compound 9 (100 mg/kg) or vehicle was orally administered BID starting one day post implant. […] show the individual replications of this measurement for each dosing. FIG. 12B is vehicle, FIG. 12C is docetaxel, FIG. 12D is Compound 9, and FIG. 12E is Compound 9+docetaxel.

[2] = molecular target: Eurofins Express Diversity Kinase Profile Panel (45 targets); assay: Eurofins Express Diversity Kinase Profile Panel; assay type: biochemical
Experimental: Using Compound 9, the activity of cell surface CD39 was assessed using K562 cells expressing human CD39 and Kinase-Glo. Activity of recombinant human ENTPD2 and ENTPD3 was assessed using a malachite green assay. […] Compound 9 was screened in the Eurofins Safety Screen Panel and the Eurofins Express Diversity Kinase Profile Panel. In the Safety Panel, 1/87 targets were inhibited at >50% at 10 μM of Compound 9. The PDE3 enzyme was inhibited at 59%.

EG7 cells [3] = assay: Viability of EG7 cells, CellTiter-Glo; assay type: cell-based, mouse; conditions: 100 μM, 3 days
Experimental: (§1) Viability of EG7 and A375 cells treated with 100 μM Compound 9 was measured using CellTiter-Glo after 3 days. Proliferation of human CD8+ T cells was measured by flow cytometry after 4 days of treatment with 100 μM Compound 9 using CellTrace CFSE Cell Proliferation Kit.

Human CD8+ T cells = assay: Proliferation of human CD8+ T cells, CellTrace CFSE flow cytometry; assay type: cell-based; conditions: 100 μM, 4 days
Experimental: as §1

[4] = molecular target: CD73-expressing SK-MEL-28 cells (Homo sapiens (Human), UniProt P21589); assay: Human CD73 cell surface assay, CD73-expressing SK-MEL-28 cells, malachite green; assay type: cell-based
Experimental: (§2) The potency of Compound 9 was evaluated against recombinant CD73 and CD73-expressing SK-MEL-28 cells using a malachite green assay. Inhibition of CD73 in plasma was measured using LC/MS to assess conversion of ^15N5-AMP into ^15N5-ADO. FIG. 4A indicates the nanomolar inhibition of CD73 cells from both human and mouse sources. […] Inhibition of CD73 in plasma was measured using LC/MS to assess conversion of ^15N5-AMP into ^15N5-ADO.

mouse plasma CD73 [5] = molecular target: T1, mouse plasma CD73 (Mus musculus (Mouse), UniProt Q61503); assay: Inhibition of CD73 in mouse plasma (IC50); assay type: biochemical
Experimental: as §2
(§3) Single dose Compound 9 (50 mg/kg) was administered orally to mice and plasma was collected at indicated time points. Compound 9 levels were measured by LC/MS. Plasma was harvested from mice 2 hours post dose and spiked with ^15N5-AMP and a TNAP inhibitor. ^15N5-ADO levels were measured by LC/MS.

mouse plasma CD73 [6] = molecular target: T1, mouse plasma CD73; assay: Oral dosing pharmacodynamics: CD73 inhibition in plasma of dosed mice; assay type: in vivo; conditions: single oral dose 50 mg/kg, plasma 2 hours post dose
Experimental: as §3

T1 sequence (Q61503 29-576): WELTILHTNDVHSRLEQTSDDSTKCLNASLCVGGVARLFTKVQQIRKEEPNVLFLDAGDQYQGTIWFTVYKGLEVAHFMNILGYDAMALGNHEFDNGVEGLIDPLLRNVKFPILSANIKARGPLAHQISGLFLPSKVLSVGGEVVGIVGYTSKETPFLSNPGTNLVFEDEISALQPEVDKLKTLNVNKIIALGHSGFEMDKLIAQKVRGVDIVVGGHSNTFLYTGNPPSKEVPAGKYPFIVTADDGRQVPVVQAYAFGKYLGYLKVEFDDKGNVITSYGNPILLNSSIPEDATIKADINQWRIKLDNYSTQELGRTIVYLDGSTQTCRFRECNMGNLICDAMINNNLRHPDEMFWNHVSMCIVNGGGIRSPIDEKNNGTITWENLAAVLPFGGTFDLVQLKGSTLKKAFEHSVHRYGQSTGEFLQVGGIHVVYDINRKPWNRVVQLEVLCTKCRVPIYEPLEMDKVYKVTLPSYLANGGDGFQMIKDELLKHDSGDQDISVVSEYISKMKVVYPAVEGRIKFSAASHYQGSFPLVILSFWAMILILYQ
CD73-expressing SK-MEL-28 cells, sequence (P21589 27-574): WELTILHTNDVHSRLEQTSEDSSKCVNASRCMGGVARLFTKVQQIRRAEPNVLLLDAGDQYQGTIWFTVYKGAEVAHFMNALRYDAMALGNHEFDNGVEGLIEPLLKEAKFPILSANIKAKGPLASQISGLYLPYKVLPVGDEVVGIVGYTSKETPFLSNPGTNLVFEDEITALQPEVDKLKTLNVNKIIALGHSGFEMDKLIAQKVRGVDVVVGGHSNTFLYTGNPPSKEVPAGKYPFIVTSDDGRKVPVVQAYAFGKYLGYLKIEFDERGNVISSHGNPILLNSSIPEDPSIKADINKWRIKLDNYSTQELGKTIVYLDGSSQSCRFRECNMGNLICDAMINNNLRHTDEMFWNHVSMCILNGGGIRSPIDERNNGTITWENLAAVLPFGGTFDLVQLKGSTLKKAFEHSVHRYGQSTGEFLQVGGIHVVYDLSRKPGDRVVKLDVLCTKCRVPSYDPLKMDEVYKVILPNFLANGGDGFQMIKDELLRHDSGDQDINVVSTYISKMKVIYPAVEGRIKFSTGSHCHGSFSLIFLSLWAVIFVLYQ

**Q.** Which “tumor volume reduction, with or without CD8+ T cell depletion” value (EG7 cells [1]; 50 mg/kg orally BID from day 1, anti-CD8 antibody i.p. days -1, 0, 5, 10) does the source give for C#C[C@@]1(O)[C@@H](COC(Cc2ccc(N3CCCNC3=O)cc2)(C(=O)O)C(=O)O)O[C@@H](n2cnc3c(N)nc(Cl)nc32)[C@@H]1O [Compound 9, 2-(((2R,3S,4R,5R)-5-(6-amino-2-chloro-9H-purin-9-yl)-3-ethynyl-3,4-dihydroxytetrahydrofuran-2-yl)methoxy)-2-(4-(2-oxotetrahydropyrimidin-1 (2H)-yl)benzyl)malonic acid] here?
**A.** Its value is “more of a tumor volume reduction”.

**Q.** And the “tumor volume, established EG7 tumors” value (EG7 cells [1]; 100 mg/kg orally BID starting day six post implant)?
**A.** The value was “decrease in tumor volume”.

**Q.** What about the “tumor volume, EG7, single agent and combination with doxorubicin” value (EG7 cells [1]; Compound 9 50 mg/kg orally BID, doxorubicin i.v. 2.5 mg/kg days 7 and 14) of the same compound?
**A.** The value was “reduction in tumor volume”.

**Q.** And the “tumor volume, EG7, single agent and combination with anti-PD-L1 antibody” value (EG7 cells [1]; Compound 9 100 mg/kg orally BID, anti-PD-L1 5 mg/kg i.p. days 3, 5, 7, 9, 11, 13)?
**A.** Its value is “reduction in tumor volume”.

**Q.** What about the “tumor volume, EG7, single agent and combination with docetaxel” value (EG7 cells [1]; Compound 9 100 mg/kg orally BID, docetaxel i.p. 5 mg/kg days 5, 12, 19) of the same compound?
**A.** Its value is “reduction in tumor volume”.

**Q.** And the “tumor volume, EG7, single agent and combination with oxaliplatin” value (EG7 cells [1]; Compound 9 100 mg/kg orally BID, oxaliplatin i.p. 6 mg/kg days 7 and 14)?
**A.** The value was “reduction in tumor volume”.

**Q.** What about the “tumor volume, EG7, dose response” value (EG7 cells [1]; orally BID from day one post implant, increasing doses) of the same compound?
**A.** The value was “further decrease in tumor volume with increasing doses”.

**Q.** And the “Kinase Panel targets inhibited at >50%” value [2]?
**A.** The value was “none of the 45 targets”.

**Q.** What about the “% cell survival of EG7 cells” value (EG7 cells [3]) of the same compound?
**A.** The value was “comparable % cell survival”.

**Q.** And the “% divided cells of human CD8+ T cells” value (Human CD8+ T cells)?
**A.** The value was “comparable % divided cells”.

**Q.** What about the IC50 [4] of the same compound?
**A.** The IC50 was 0.21 nM.

**Q.** And the IC50 (mouse plasma CD73 [5])?
**A.** The IC50 was 1 nM.

**Q.** And the inhibition at 50 mg/kg (mouse plasma CD73 [6])?
**A.** The inhibition at 50 mg/kg was 92%.
